Starred links: 1 amine or outer side, 2 acyl side, 3 side chain; linkers in the order of their positions; H or OH if unused. Non-standard residues stand in square brackets, D forms with d. Residues, ends and D or L forms follow the SMILES beside them. X1 = CNS(=O)(=O)c1ccccc1N([C@H](C(=O)[*:2])C(C)C)[*:1]
System: Pfu aminopeptidase I
Settings: 100 μM 5, 40 μM 5a, 0.08 μg mL−1 aminopeptidase I, 20 μM Co(OAc)2, NaOAc buffer 5 mM, pH 6.0, 95 °C, quenched with EDTA, RP-HPLC at 220 and 310 nm, internal standard 19, starting material peak area compared with 0 h
Experimental: (b) RP-HPLC analysis of the enzymatic degradation of angiotensin IV (5) and arylated angiotensin IV (5a) with aminopeptidase I. Conditions: 100 μM 5, 40 μM 5a, 0.08 μg mL^−1 aminopeptidase I, and 20 μM Co(OAc)2 in NaOAc buffer (5 mM, pH = 6.0) at 95 °C. Internal standard 19 for quantification. (c) Peptidase activity: time course for aminopeptidease I cleavage of arylated angiotensin IV (5a, orange) and angiotensin IV (5, blue).
We decided to investigate whether the charge and structural perturbation afforded by the N-arylation engendered peptide stability towards enzymatic degradation.
Enzymatic Degradation with Aminopeptidase I
Stability Test of Peptides to Aminopeptidase I
1.7 mM in 20% aq. MeCN) and Co(OAc)2 (50 µL, 200 µM in H2O) in NaOAc buffer (338 µL, 5 mM,
pH = 6.0) was added aminopeptidase I (75 µL, 0.5 mg/mL in Tris buffer (50 mM, pH = 6.0). A 50 -
µL aliquot was immediately removed after addition of the enzyme and was quenched with EDTA
(5 µL, 1 M in H2O). Internal standard 2-amino-N,N’-dimethylbenzenesulfonamide 19 was added
(1.5 μL, 4 mM in DMSO) and the 0 h timepoint was analyzed by RP-HPLC (20-60% MeCN over
28 min) at 220 nm and 310 nm. The reaction mixture was then heated to 95 °C and 50-µL aliquots
were removed and quenched with EDTA (5 µL, 1 M in H2O) at 10 min, 30 min, 1 h, and 2 h. After
quenching, the internal standard 19 was added (1.5 μL, 4 mM in DMSO) and analyzed by RP- […]

SMILES	Stability towards enzymatic degradation by aminopeptidase I, after 2 h incubation (2 h)	Stability towards enzymatic degradation by aminopeptidase I, after 10 minutes (10 min)
CC[C@H](C)[C@H](NC(=O)[C@H](Cc1ccc(O)cc1)NC(=O)[C@@H](Nc1ccccc1S(=O)(=O)NC)C(C)C)C(=O)N[C@@H](Cc1c[nH]cn1)C(=O)N1CCC[C@H]1C(=O)N[C@@H](Cc1ccccc1)C(=O)O [5a] (H-[X1]YIHPF-OH)	remained stable	
CC[C@H](C)[C@H](NC(=O)[C@H](Cc1ccc(O)cc1)NC(=O)[C@@H](N)C(C)C)C(=O)N[C@@H](Cc1cnc[nH]1)C(=O)N1CCC[C@H]1C(=O)N[C@@H](Cc1ccccc1)C(=O)O [compound 5, Angiotensin IV]		completely consumed

From paper PMC8162437, “Copper-mediated peptide arylation selective for the N-terminus” (Chemical Science, 2020)
